Experimental findings from ChEMBL document CHEMBL1201862, “PubChem BioAssay data set” (2004) are described below.

Test [1] has as its target Serine/threonine-protein kinase Chk1 (Homo sapiens, UniProt O14757). The test is classed as functional.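 Note: measured as one member of a kinome-wide kinase profiling panel.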
Test [2] is described as follows: inhibitors of SNCA 5'UTR-driven translation, confirmation, luminescence, H4 neuroglioblastoma cells, dose confirmation (AID 2454).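 Note: H4 neuroglioblastoma cells carrying an alpha-synuclein 5'UTR luciferase reporter; potency for inhibition of the luciferase signal.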 In kind it is functional, cell-based.
In test [3] the target is T1, Rac GTPase-activating protein 1 (Homo sapiens, UniProt Q9H0H5).
T1 sequence (Q9H0H5 whole entry): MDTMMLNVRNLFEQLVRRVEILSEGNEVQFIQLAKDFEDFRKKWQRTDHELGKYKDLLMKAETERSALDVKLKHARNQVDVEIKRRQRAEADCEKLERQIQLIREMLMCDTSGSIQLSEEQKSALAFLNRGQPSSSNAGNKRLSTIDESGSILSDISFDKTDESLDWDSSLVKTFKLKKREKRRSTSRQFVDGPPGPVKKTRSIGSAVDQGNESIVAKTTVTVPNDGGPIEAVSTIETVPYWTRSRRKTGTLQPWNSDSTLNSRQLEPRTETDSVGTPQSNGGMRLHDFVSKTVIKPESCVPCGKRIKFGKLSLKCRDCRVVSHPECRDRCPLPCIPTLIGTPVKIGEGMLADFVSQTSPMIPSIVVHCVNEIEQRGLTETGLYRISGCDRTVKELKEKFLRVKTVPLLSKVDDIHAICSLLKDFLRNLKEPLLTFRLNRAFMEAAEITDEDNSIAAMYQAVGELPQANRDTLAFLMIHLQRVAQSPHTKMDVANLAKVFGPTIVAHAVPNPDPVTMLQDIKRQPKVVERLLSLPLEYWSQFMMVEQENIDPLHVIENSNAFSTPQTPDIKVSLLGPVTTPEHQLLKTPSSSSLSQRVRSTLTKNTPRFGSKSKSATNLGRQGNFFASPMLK
The test is described as follows: MgcRacGAP GTPase-activating activity inhibitors, confirmation, biochemical, ADP Hunter fluorescence, primary and confirmatory (AID 624330). The test is classed as functional.

The source made the active and inactive calls.

Sequence of Serine/threonine-protein kinase Chk1 (O14757 whole entry): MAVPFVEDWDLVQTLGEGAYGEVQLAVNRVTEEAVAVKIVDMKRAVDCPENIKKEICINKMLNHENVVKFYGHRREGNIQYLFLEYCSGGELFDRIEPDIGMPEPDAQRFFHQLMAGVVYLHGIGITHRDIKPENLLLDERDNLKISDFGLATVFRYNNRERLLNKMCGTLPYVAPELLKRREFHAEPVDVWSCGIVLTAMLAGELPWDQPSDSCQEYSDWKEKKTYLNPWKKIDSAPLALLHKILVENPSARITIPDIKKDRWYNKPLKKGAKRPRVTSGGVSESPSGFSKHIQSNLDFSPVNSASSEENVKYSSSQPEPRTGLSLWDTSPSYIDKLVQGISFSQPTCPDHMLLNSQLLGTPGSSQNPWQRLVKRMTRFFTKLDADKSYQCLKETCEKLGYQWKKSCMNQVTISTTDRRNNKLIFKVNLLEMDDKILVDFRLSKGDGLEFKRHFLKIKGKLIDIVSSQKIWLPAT

As a reminder, the Ki is the dissociation constant of the complex between target and ligand, obtained from inhibition or displacement. As for `Nc1c(-c2ccc(NC(=O)Nc3cccc(C(F)(F)F)c3)cc2)cnc2c(-c3ccc4c(c3)OCO4)cnn12`, the Ki in test [1] is > 3.16 µM (inactive). The term EC50 denotes the concentration that produces a half-maximal response. A low value points to greater potency. By IC50 is commonly meant the midpoint of a concentration-inhibition curve. On to `CCN1C(=Cc2sc3ccccc3[n+]2C)C=Cc2cccc(C)c21`, for which the EC50 in test [2] is reported as > 12 µM (not active). The IC50 in test [3] was 55.9 µM (active).
